Reference: the supplement of paper PMC11451515

Assays:
Details in all cases: 48 h
NOMO1 [1] = assay: cell viability relative to DMSO control; higher = less cytotoxic
Outline: (§1)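 Viability was expressed as a per-plate percentage of DMSO wells, with cell-free wells as background. Leukemia cells (NOMO1 or SEM at 500 cells/well, P12-Ichikawa at 1000 cells/well) were adapted for at least four passages in each medium and seeded in 1536-well plates (5 μl). Library compounds in DMSO were pin-dosed over an 11-point threefold series from 47 μM to 0.79 nM, and CellTiter-Glo One luminescence was read after 48 h at 37°C.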

P12-Ichikawa [2] = assay: as above
Outline: as §1

SEM cells [3] = assay: as above
Outline: as §1

NOMO1 [4] = assay: AUC of viability dose-response curve (% viability x log10 dose units); higher = less sensitive
Outline: (§2)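 Leukemia cells adapted to each medium (500 or 1000 cells/well, 1536-well plates) were exposed to library compounds in DMSO for 48 h at 37°C at 11 threefold doses, 47 μM to 0.79 nM. Luminescence by CellTiter-Glo One was normalised per plate to DMSO and cell-free wells, then fitted with a four-parameter log-logistic curve on log10 dose. Curves above full viability were scaled and quality-control failures removed before area under the curve was integrated by trapezoidal rule.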

P12-Ichikawa [5] = assay: as above
Outline: as §2

SEM cells [6] = assay: as above
Outline: as §2

C=C(C)[C@@H]1CC[C@]2(C(=O)O)CC[C@]3(C)[C@H](CC[C@@H]4[C@@]5(C)CC[C@H](O)C(C)(C)[C@@H]5CC[C@]43C)[C@@H]12
cell viability [%]
Details | NOMO1 [1] | P12-Ichikawa [2] | SEM cells [3]
HPLM + 10% dialyzed FBS, 0.000781 µM | 115 | 111 | –
HPLM + 10% dialyzed FBS, 0.00234 µM | 124 | 123 | –
HPLM + 10% dialyzed FBS, 0.00702 µM | 107 | 120 | –
HPLM + 10% dialyzed FBS, 0.0211 µM | 123 | 114 | –
HPLM + 10% dialyzed FBS, 0.0632 µM | 119 | 116 | –
HPLM + 10% dialyzed FBS, 0.19 µM | 110 | 111 | –
HPLM + 10% dialyzed FBS, 0.569 µM | 118 | 109 | –
HPLM + 10% dialyzed FBS, 1.71 µM | 105 | 103 | –
HPLM + 10% dialyzed FBS, 5.12 µM | 102 | 99.9 | –
HPLM + 10% dialyzed FBS, 15.4 µM | 94.6 | 99.1 | –
HPLM + 10% dialyzed FBS, 46.1 µM | 95.7 | 97.3 | –
RPMI 5 mM glucose + 10% FBS, 0.000781 µM | 116 | 108 | 115
RPMI 5 mM glucose + 10% FBS, 0.00234 µM | 118 | 116 | 116
RPMI 5 mM glucose + 10% FBS, 0.00702 µM | 121 | 114 | 134
RPMI 5 mM glucose + 10% FBS, 0.0211 µM | 111 | 109 | 129
RPMI 5 mM glucose + 10% FBS, 0.0632 µM | 115 | 116 | 140
RPMI 5 mM glucose + 10% FBS, 0.19 µM | 111 | 107 | 52.4
RPMI 5 mM glucose + 10% FBS, 0.569 µM | 119 | 119 | 128
RPMI 5 mM glucose + 10% FBS, 1.71 µM | 113 | 106 | 123
RPMI 5 mM glucose + 10% FBS, 5.12 µM | 111 | 97.8 | 42.7
RPMI 5 mM glucose + 10% FBS, 15.4 µM | 114 | 98.5 | 112
RPMI 5 mM glucose + 10% FBS, 46.1 µM | 97.1 | 103 | 107
RPMI 5 mM glucose + 10% dialyzed FBS, 0.000781 µM | – | 114 | –
RPMI 5 mM glucose + 10% dialyzed FBS, 0.00234 µM | – | 121 | –
RPMI 5 mM glucose + 10% dialyzed FBS, 0.00702 µM | – | 120 | –
RPMI 5 mM glucose + 10% dialyzed FBS, 0.0211 µM | – | 110 | –
RPMI 5 mM glucose + 10% dialyzed FBS, 0.0632 µM | – | 108 | –
RPMI 5 mM glucose + 10% dialyzed FBS, 0.19 µM | – | 102 | –
RPMI 5 mM glucose + 10% dialyzed FBS, 0.569 µM | – | 111 | –
RPMI 5 mM glucose + 10% dialyzed FBS, 1.71 µM | – | 100 | –
RPMI 5 mM glucose + 10% dialyzed FBS, 5.12 µM | – | 95.1 | –
RPMI 5 mM glucose + 10% dialyzed FBS, 15.4 µM | – | 94.3 | –
RPMI 5 mM glucose + 10% dialyzed FBS, 46.1 µM | – | 87.3 | –

AUC of viability dose-response curve
Details | NOMO1 [4] | P12-Ichikawa [5] | SEM cells [6]
HPLM + 10% dialyzed FBS | 452 | 445 | 420
RPMI 5 mM glucose + 10% FBS | 473 | 461 | 410
RPMI 5 mM glucose + 10% dialyzed FBS | 466 | 427 | 397

COc1cc2c(cc1OC)C1CC(=O)C(CC(C)C)CN1CC2 (stereo unspecified)
cell viability [%]
Details | NOMO1 [1] | P12-Ichikawa [2] | SEM cells [3]
HPLM + 10% dialyzed FBS, 0.000781 µM | – | 122 | 84.5
HPLM + 10% dialyzed FBS, 0.00234 µM | – | 122 | 116
HPLM + 10% dialyzed FBS, 0.00702 µM | – | 116 | 99.6
HPLM + 10% dialyzed FBS, 0.0211 µM | – | 118 | 107
HPLM + 10% dialyzed FBS, 0.0632 µM | – | 113 | 98.4
HPLM + 10% dialyzed FBS, 0.19 µM | – | 127 | 100
HPLM + 10% dialyzed FBS, 0.569 µM | – | 117 | 118
HPLM + 10% dialyzed FBS, 1.71 µM | – | 122 | 110
HPLM + 10% dialyzed FBS, 5.12 µM | – | 116 | 112
HPLM + 10% dialyzed FBS, 15.4 µM | – | 114 | 103
HPLM + 10% dialyzed FBS, 46.1 µM | – | 106 | 96.5
RPMI 5 mM glucose + 10% FBS, 0.000781 µM | 116 | – | 116
RPMI 5 mM glucose + 10% FBS, 0.00234 µM | 106 | – | 114
RPMI 5 mM glucose + 10% FBS, 0.00702 µM | 106 | – | 110
RPMI 5 mM glucose + 10% FBS, 0.0211 µM | 104 | – | 118
RPMI 5 mM glucose + 10% FBS, 0.0632 µM | 134 | – | 103
RPMI 5 mM glucose + 10% FBS, 0.19 µM | 117 | – | 110
RPMI 5 mM glucose + 10% FBS, 0.569 µM | 116 | – | 114
RPMI 5 mM glucose + 10% FBS, 1.71 µM | 104 | – | 118
RPMI 5 mM glucose + 10% FBS, 5.12 µM | 113 | – | 118
RPMI 5 mM glucose + 10% FBS, 15.4 µM | 113 | – | 116
RPMI 5 mM glucose + 10% FBS, 46.1 µM | 103 | – | 109
RPMI 5 mM glucose + 10% dialyzed FBS, 0.000781 µM | 117 | 117 | 120
RPMI 5 mM glucose + 10% dialyzed FBS, 0.00234 µM | 133 | 119 | 140
RPMI 5 mM glucose + 10% dialyzed FBS, 0.00702 µM | 109 | 121 | 113
RPMI 5 mM glucose + 10% dialyzed FBS, 0.0211 µM | 115 | 124 | 117
RPMI 5 mM glucose + 10% dialyzed FBS, 0.0632 µM | 148 | 122 | 97.1
RPMI 5 mM glucose + 10% dialyzed FBS, 0.19 µM | 124 | 125 | 129
RPMI 5 mM glucose + 10% dialyzed FBS, 0.569 µM | 128 | 118 | 111
RPMI 5 mM glucose + 10% dialyzed FBS, 1.71 µM | 121 | 125 | 129
RPMI 5 mM glucose + 10% dialyzed FBS, 5.12 µM | 115 | 109 | 124
RPMI 5 mM glucose + 10% dialyzed FBS, 15.4 µM | 110 | 115 | 119
RPMI 5 mM glucose + 10% dialyzed FBS, 46.1 µM | 125 | 102 | 103

AUC of viability dose-response curve
Details | NOMO1 [4] | P12-Ichikawa [5] | SEM cells [6]
HPLM + 10% dialyzed FBS | 448 | 459 | 471
RPMI 5 mM glucose + 10% FBS | 470 | 459 | 476
RPMI 5 mM glucose + 10% dialyzed FBS | 469 | 466 | 459
